The record followed here is patent publication US20040115666A1, “Method for identifying compounds modulating reverse cholesterol transport” (priority 2001, published 2004).

For data set [1], the system named is site A of the human apo A-I promoter. The data set is described as follows: luciferase reporter A3TK (three copies of site A upstream of TK promoter) in HepG2 cells overexpressing hFXR. Format: cell-based. The procedure:
(§1) HepG2 cells were transfected by lipofection with 300 ng of pCDNA3-hFXR vector for expression of hFXR and 1 μg of the indicated reporter vectors allowing expression of a luciferase reporter gene under the control wild type or mutated fragment −254/+91 of the human apo A-I gene promoter, under the control of the herpes simplex virus thymidine kinase promoter or under the control of three copies of site A or site C of the human apo A-I gene cloned upstream of the herpes simplex virus thymidine kinase promoter. […] The construct containing fragment −254/+91 of the apo A-I promoter in which site A is mutated was obtained by directed mutagenesis of site A, in the wild type construct, using the Quick Change Site directed mutagenesis kit (Stratagene, La Jolla, Calif., USA), oligonucleotide 5′-[…]-3′ (SEQ ID NO: 4) and the complementary oligonucleotide. The construct containing fragment −254/+91 of the apo A-I promoter in which site C is mutated was obtained by directed mutagenesis of site C, in the wild type construct, using the Quick Change Site directed mutagenesis kit (Stratagene, La Jolla, Calif., USA), oligonucleotide 5′-[…]-3′ (SEQ ID NO: 3) and the complementary oligonucleotide. […]
On the technique in general: A reporter such as luciferase makes a cellular process visible.

The subject of data set [2] is apo A-I expression in HepG2 cells. The data set is described as follows: apo A-I mRNA expression in HepG2 cells (Northern blot). Format: cell-based, human. How it is done: HepG2 cells were grown in DMEM medium supplemented with 10% fetal calf serum, penicillin/streptomycin, sodium pyruvate and nonessential amino acids and incubated at 37° C in a humidified 5% CO2/95% air atmosphere. […] Total RNA was extracted as previously described (Chomczynski et al., Anal. Biochem., 1987, 162 (1): 156-9) and quantified by Northern Blot hybridization (Peters, J. Biol. Chem., 1997, 272 (43): 27307-12) using human apo A-I and 28S as probes (Peters, J. Biol. Chem., 1997, 272 (43): 27307-12).
HepG2 cells were grown in DMEM medium supplemented with 10% fetal calf serum, penicillin/streptomycin, sodium pyruvate and nonessential amino acids and incubated at 37° C. in a humidified 5% CO2/95% air atmosphere. Total RNA was extracted as previously described (Chomczynski et al., Anal. Biochem., 1987, 162 (1): 156-9) and quantified by Northern Blot hybridization (Peters, J. Biol. Chem., 1997, 272 (43): 27307-12) using human apo A-I and 28S as probes (Peters, J. Biol. Chem., 1997, 272 (43): 27307-12).
(§2) HepG2 were cotransfected as described in example 5. Cellular mRNA was obtained as described above in example 2.

Data set [3] has as its system herpes simplex virus thymidine kinase promoter. The data set is described as follows: luciferase reporter TkpGL3 (TK promoter only) in HepG2 cells overexpressing hFXR. It counts as cell-based, human. The note with it: overexpression of hFXR, CDCA. How it is done:
as §1

For data set [4], the system named is site C of the human apo A-I promoter. The data set is described as follows: luciferase reporter C3TK (three copies of site C upstream of TK promoter) in HepG2 cells overexpressing hFXR. Format: cell-based. The procedure: as §1
The next data set relates to human apo A-I promoter. The data set is described as follows: luciferase reporter under human apo A-I promoter fragments in HepG2 cells overexpressing hFXR. It counts as cell-based. How it is done: HepG2 cells were cotransfected by lipofection with 300 ng of pCDNA3-hFXR vector for FXR expression, 300 ng of pSG5-mRXRα vector and 1 μg of the indicated reporter vectors enabling expression of the luciferase reporter gene under the control of fragments −254/+91, −192/+91 and −40/+91 of the apo A-I promoter. […] Total DNA was adjusted to 2 μg using plasmid pBKS+. After a 3 hour transfection, cells were incubated in the culture medium with bile acids at the indicated concentrations for 36 hours.
HepG2 cells were transfected by lipofection with 300 ng of pCDNA3-hFXR vector for expression of hFXR and 1 μg of the indicated reporter vectors allowing expression of a luciferase reporter gene under the control wild type or mutated fragment −254/+91 of the human apo A-I gene promoter, under the control of the herpes simplex virus thymidine kinase promoter or under the control of three copies of site A or site C of the human apo A-I gene cloned upstream of the herpes simplex virus thymidine kinase promoter. […] The construct containing fragment −254/+91 of the apo A-I promoter in which site A is mutated was obtained by directed mutagenesis of site A, in the wild type construct, using the Quick Change Site directed mutagenesis kit (Stratagene, La Jolla, Calif., USA), oligonucleotide 5′-[…]-3′ (SEQ ID NO: 4) and the complementary oligonucleotide. The construct containing fragment −254/+91 of the apo A-I promoter in which site C is mutated was obtained by directed mutagenesis of site C, in the wild type construct, using the Quick Change Site directed mutagenesis kit (Stratagene, La Jolla, Calif., USA), oligonucleotide 5′-[…]-3′ (SEQ ID NO: 3) and the complementary oligonucleotide. The construct containing fragment −254/+91 of the apo A-I promoter in which sites A and C are mutated was obtained by directed mutagenesis of site A, in the Cmut construct, using the Quick Change Site directed mutagenesis kit (Stratagene, La Jolla, Calif., USA), oligonucleotide 5′-[…]-3′ (SEQ ID NO: 4) and the complementary oligonucleotide. The construct denoted TkpGL3 containing the herpes simplex virus thymidine kinase promoter cloned upstream of a luciferase reporter gene has been previously described (Raspé et al., J. Biol. Chem., 2001, 276 (4): 2865-2871). The C3TK construct containing three copies of site C of the human apo A-I promoter cloned upstream of the herpes simplex virus thymidine kinase promoter and the luciferase reporter gene was obtained by oriented cloning of three copies of the double-stranded oligonucleotide corresponding to the wild type site C sequence (SEQ ID NO: 1) into the SmaI site of vector TkpGL3. The A3TK construct containing three copies of site A of the human apo A-I promoter cloned upstream of the herpes simplex virus thymidine kinase promoter and the luciferase reporter gene was obtained by oriented cloning of three copies of the double-stranded oligonucleotide corresponding to the wild type site A sequence (SEQ ID NO: 2) into the SmaI site of vector TkpGL3. Total DNA was adjusted to 2 μg using plasmid pBKS+. After a 3 hour transfection, cells were incubated in the culture medium with the bile acids at the indicated concentrations for 36 hours.
as §2

Data set [5] concerns mice transgenic for the human apo A-I gene. Conditions: diet rich in TCA 0.5% m/m, one week. The text has this:
Effect of TCA on Plasma Concentrations of Cholesterol and Apo A-I and on Hepatic Expression of apo A-I in Mice Transgenic for the Human apo A-I Gene (FIG. 1)
Example 1 illustrates the effect of a diet rich in taurocholate on serum cholesterol and human apo A-I levels and on lipid profile and hepatic expression of human apo A-I in transgenic mice expressing the apo A-I gene in a C57BL genetic background.
Ten transgenic mice expressing the apo A-I gene in a C57BL genetic background (IFFA-CREDO, L'Arbresle, France) were genotyped by PCR and divided into two groups of five animals. The first group received a normal diet for one week while the second was given a diet rich in TCA (taurocholic acid, 0.5% m/m). Blood was collected after a 12 hour fast by retroorbital puncture under barbital anesthesia. Serum samples were collected and stored at −20° C. pending analysis. After one week of dietary treatment, animals were sacrificed and liver specimens were collected and frozen for analysis. Human apo A-I levels in serum were measured before and after the diet as previously described (Peters, J. Biol. Chem., 1997, 272 (43): 27307-12). Serum cholesterol and lipid profiles after FPLC were measured as previously described (Raspé et al., J. Lipid Res., 1999, 40 (11): 2099-2110). Total RNA was extracted from liver specimens as previously described (Chomczynski et al., Anal. Biochem., 1987, 162 (1): 156-9) and quantified by Northern Blot hybridization (Peters, 1997) using human apo A-I and 28S as probes (Peters, J. Biol. Chem., 1997, 272 (43): 27307-12).

The target in another data set is T1, FXR (Homo sapiens, UniProt Q96RI1).
T1 sequence (Q96RI1 1-472 isoform Q96RI1-2): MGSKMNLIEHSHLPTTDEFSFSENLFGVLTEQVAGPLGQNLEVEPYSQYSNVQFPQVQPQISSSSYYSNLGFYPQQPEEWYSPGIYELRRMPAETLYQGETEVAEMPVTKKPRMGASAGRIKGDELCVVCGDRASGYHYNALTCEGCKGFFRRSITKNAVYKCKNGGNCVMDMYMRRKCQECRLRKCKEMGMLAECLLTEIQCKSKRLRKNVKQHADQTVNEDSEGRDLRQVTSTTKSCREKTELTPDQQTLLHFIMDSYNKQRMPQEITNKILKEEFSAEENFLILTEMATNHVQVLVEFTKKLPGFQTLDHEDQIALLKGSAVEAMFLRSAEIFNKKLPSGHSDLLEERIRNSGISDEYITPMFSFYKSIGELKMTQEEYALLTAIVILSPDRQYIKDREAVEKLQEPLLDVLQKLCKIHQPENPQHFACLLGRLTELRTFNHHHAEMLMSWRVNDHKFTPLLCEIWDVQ
Conditions: FIG. 4.

For data set [6], the system named is FXR (hFXR) (Homo sapiens). The data set is described as follows: cell_activity. Conditions: 1 µM GW4064, HepG2.
Setting [7] is: overexpression of hFXR and mRXRα, CDCA, 36 hours.
Setting [8] is: overexpression of hFXR, panel A.
[9] abbreviates: hFXR overexpression, 1 μM GW4064, in words.

As to `C[C@H](CCC(=O)O)[C@H]1CC[C@H]2[C@@H]3[C@H](O)C[C@@H]4C[C@H](O)CC[C@]4(C)[C@H]3CC[C@]12C` [CDCA, chenodeoxycholic acid], in data set [1] (overexpression of hFXR, CDCA), the “activity of construct A3TK” value is reported as “activated”. Besides, the “apo A-I expression in HepG2 cells” value in data set [2] (50 μM) is on record as “considerably reduces”. In addition, in data set [2] (CDCA 50 μM, 12-h preincubation with actinomycin D (5 g/ml)), the “effect on apo A-I expression after actinomycin D preincubation” value is listed as “offset”. Further, the “apo A-I expression in HepG2 cells” value in data set [2] (increasing concentrations) is listed as “reduce”. Besides, the “activity of construct TkpGL3” value in data set [3] is listed as “not affected”. Moreover, in data set [4] (overexpression of hFXR, CDCA), the “activity of construct C3TK” value was “represses”. In the data set with human apo A-I promoter (setting [7]), the “activity of fragment −40/+91 (minimal promoter) of the apo A-I gene promoter” value was “not”, the “activity of fragment −192/+91 of the apo A-I gene promoter” value is “represses” and the “activity of fragment −254/+91 of the apo A-I gene promoter” value was “represses”. Further, in the data set with human apo A-I promoter (overexpression of hFXR, CDCA), the “activity of fragment −254/+91 with site A mutated (A mut construct)” value is recorded as “represses” and the “activity of wild type fragment −254/+91 (wt construct)” value was “represses”. For the same molecule, in the data set on human apo A-I promoter (setting [8]), the “activity of fragment −254/+91 with site C mutated (C mut construct)” value is reported as “transcriptional activation”; the “activity of fragment −254/+91 with sites A and C mutated (AC mut construct)” value is given as “loss of response”.

As for `CC(C)c1onc(-c2c(Cl)cccc2Cl)c1COc1ccc(/C=C/c2cccc(C(=O)O)c2)c(Cl)c1` [GW4064], the “activity of construct A3TK” value in data set [1] (hFXR overexpression, GW4064, in words) is recorded as “activated”. Besides, the “apo A-I expression in HepG2 cells” value in data set [2] (GW4064, in words) was “markedly reduces”. The “activity of construct C3TK” value in data set [4] (setting [9]) was “represses”. Besides, in the data set with human apo A-I promoter (setting [9]), the “activity of fragment −254/+91 of the human apo A-I promoter (construct ABC)” value is on record as “represses”.

For the molecule `C[C@H](CCC(=O)NCCS(=O)(=O)O)[C@H]1CC[C@H]2[C@@H]3[C@H](O)C[C@@H]4C[C@H](O)CC[C@]4(C)[C@H]3C[C@H](O)[C@]12C` [TCA, taurocholic acid], in data set [5], the “hepatic expression of apo A-I” value is “reduces”, the “plasma concentrations of apo A-I” value is “reduces” and the “plasma concentrations of cholesterol” value is “reduces”. For the same molecule, the FXR activation result at FXR is “activate”. Also, in data set [2] (increasing concentrations), the “apo A-I expression in HepG2 cells” value is listed as “reduce”.

apo A-I promoter -254/+91 gave an activity (% of control luciferase) in data set [6] (construct ABC, repression) of 56.8.

For the molecule apo A-I promoter site A wt, the activity (% of control luciferase) in data set [6] (A3TK, three copies, activation) is 1120.

apo A-I promoter site C wt returned an activity (% of control luciferase) in data set [6] (C3TK, three copies, repression) of 61.8.
